Literature values as cited in US8614228B2, “Quinone prodrug compositions and methods of use” (ArQule, Inc., priority 2004, dated 2013).

Tested on: normal fresh or proliferating human PBMC

Question: With CC1(C)CCC2=C(O1)c1ccccc1C(=O)C2=O [β-lapachone, 3,4-dihydro-2,2-dimethyl-2H-naphtho[1,2-b]pyran-5,6-dione] as the molecule, how does the cytotoxic effects read?
Answer: The cytotoxic effects was “No cytotoxic effects were observed”.
